# Data as given in US12522594B2, “2-heteroaryl-3-oxo-2,3-dihydropyridazine-4-carboxamides for the treatment of cancer” (Deutsches Krebsforschungszentrum, priority 2017, dated 2026).
# Experiments:
# AHR [1] = target: T1, AHR (Homo sapiens, UniProt P35869); assay: In vitro assay 1: antagonism in human cell line (transactivation assay, U87 cells prestimulated with kynurenic acid, DRE firefly luciferase reporter); assay type: cell-based; set-up: host or cells: U87 glioblastoma cells, stably transfected with DRE firefly luciferase and renilla reporter constructs; conditions: 150 uM kynurenic acid, 20 hours, read-out: Assay 1: AHR-luc Hum Antagonism IC50
# T1 sequence (P35869 11-848): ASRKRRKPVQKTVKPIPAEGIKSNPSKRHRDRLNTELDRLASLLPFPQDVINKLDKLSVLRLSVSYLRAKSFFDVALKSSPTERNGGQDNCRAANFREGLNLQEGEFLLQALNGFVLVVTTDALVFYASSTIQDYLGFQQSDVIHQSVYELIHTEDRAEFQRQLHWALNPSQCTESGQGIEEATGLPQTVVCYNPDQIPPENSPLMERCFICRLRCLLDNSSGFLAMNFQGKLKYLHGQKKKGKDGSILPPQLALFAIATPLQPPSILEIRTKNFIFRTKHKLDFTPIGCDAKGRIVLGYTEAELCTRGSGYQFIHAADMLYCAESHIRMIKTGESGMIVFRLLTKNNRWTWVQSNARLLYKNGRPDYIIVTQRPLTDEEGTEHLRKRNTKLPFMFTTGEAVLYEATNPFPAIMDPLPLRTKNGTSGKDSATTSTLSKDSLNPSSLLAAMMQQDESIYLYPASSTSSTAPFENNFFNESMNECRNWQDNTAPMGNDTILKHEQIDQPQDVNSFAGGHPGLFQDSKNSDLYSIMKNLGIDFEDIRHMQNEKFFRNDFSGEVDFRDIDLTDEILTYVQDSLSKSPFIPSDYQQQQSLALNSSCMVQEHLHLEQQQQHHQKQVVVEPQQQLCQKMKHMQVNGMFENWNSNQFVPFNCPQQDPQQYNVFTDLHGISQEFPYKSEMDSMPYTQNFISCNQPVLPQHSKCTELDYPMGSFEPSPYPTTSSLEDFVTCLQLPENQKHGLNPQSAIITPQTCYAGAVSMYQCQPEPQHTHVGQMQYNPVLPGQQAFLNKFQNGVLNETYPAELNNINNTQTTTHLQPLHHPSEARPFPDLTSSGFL
# Method: (§1) Transactivation Assay in Human Cell Line (In Vitro Assays 1 and 2)
# (§2) Transactivation assays were carried out in U87 glioblastoma cells (ATCC) endogenously expressing AHR. In addition the cells were stably transfected with an AHR inducible firefly luciferase reporter gene construct that carried AHR-binding sites (DRE) in its promoter and a renilla reporter gene construct with constitutively active promoter. Kynurenic acid is an endogenous AHR activating ligand and was used to prestimulate test cells prior to testing the antagonistic properties of compounds.
# In Vitro Assay 1: Antagonism in Human Cell Line
# Normalization was done by positive and negative controls.
# AHR [2] = target: T1, AHR; assay: In vitro assay 2: agonism in human cell line (transactivation assay, U87 cells, DRE firefly luciferase reporter); assay type: cell-based; set-up: host or cells: U87 glioblastoma cells, stably transfected with DRE firefly luciferase and renilla reporter constructs; conditions: no kynurenic acid, 20 hours, read-out: Assay 2: AHR-luc Hum Agonism IC50
# Method: as §1, §2
# In Vitro Assay 2: Agonism in Human Cell Line
# As positive activation control cells were incubated with 300 uM kynurenic acid. Normalization was done by positive and negative controls.
SMILES,IC50 (AHR [1]) [nM],IC50 (AHR [2]) [nM]
"Cn1cc(-n2nc(-c3ccc(Cl)cc3)cc(C(=O)NC(CO)C(F)(F)F)c2=O)cn1 (racemic) [Example 33, 6-(4-Chlorophenyl)-2-(1-methyl-1H-pyrazol-4-yl)-3-oxo-N-[(2RS)-1,1,1-trifluoro-3-hydroxypropan-2-yl]-2,3-dihydropyridazine-4-carboxamide]",2.66,> 20000
"Cn1cc(-n2nc(-c3ccc(Cl)cc3)cc(C(=O)N[C@@H]3COC[C@@H]3O)c2=O)cn1 (racemic) [Example 43, 6-(4-Chlorophenyl)-N-[(cis)-4-hydroxytetrahydrofuran-3-yl]-2-(1-methyl-1H-pyrazol-4-yl)-3-oxo-2,3-dihydropyridazine-4-carboxamide]",23,> 20000
"Cn1cc(-n2nc(-c3ccc(OC(F)(F)F)cc3)cc(C(=O)N[C@@H]3COC[C@@H]3O)c2=O)cn1 (racemic) [Example 55, N-[(cis)-4-Hydroxytetrahydrofuran-3-yl]-2-(1-methyl-1H-pyrazol-4-yl)-3-oxo-6-[4-(trifluoromethoxy)phenyl]-2,3-dihydropyridazine-4-carboxamide]",17.9,> 20000
"Cn1cc(-n2nc(-c3ccc(OC(F)(F)F)cc3)cc(C(=O)N[C@@H]3COC[C@H]3O)c2=O)cn1 (racemic) [Example 63, N-[(trans)-4-Hydroxytetrahydrofuran-3-yl]-2-(1-methyl-1H-pyrazol-4-yl)-3-oxo-6-[4-(trifluoromethoxy)phenyl]-2,3-dihydropyridazine-4-carboxamide]",81,> 20000
"O=C(NC(CO)C1CC1)c1cc(-c2ccc(Cl)cc2)nn(-c2cncc(F)c2)c1=O (racemic) [Example 97, 6-(4-Chlorophenyl)-N-[(1RS)-1-cyclopropyl-2-hydroxyethyl]-2-(5-fluoropyridin-3-yl)-3-oxo-2,3-dihydropyridazine-4-carboxamide]",7.06,> 20000
"O=C(NCC(O)C(F)F)c1cc(-c2ccc(C(F)(F)F)cc2)nn(-c2cccnc2)c1=O (racemic) [Example 101, N-[(2RS)-3,3-Difluoro-2-hydroxypropyl]-3-oxo-2-(pyridin-3-yl)-6-[4-(trifluoromethyl)phenyl]-2,3-dihydropyridazine-4-carboxamide]",9.54,> 20000
"O=C(N[C@@H]1COC[C@@H]1O)c1cc(-c2ccc(C(F)(F)F)cc2)nn(-c2cccnc2)c1=O (racemic) [Example 107, N-[(3RS,4RS)-4-Hydroxytetrahydrofuran-3-yl]-3-oxo-2-(pyridin-3-yl)-6-[4-(trifluoromethyl)phenyl]-2,3-dihydropyridazine-4-carboxamide]",12.3,> 20000
"O=C(NCC(O)C(F)(F)F)c1cc(-c2ccc(C(F)(F)F)cc2)nn(-c2cccnc2)c1=O (racemic) [Example 108, 3-Oxo-2-(pyridin-3-yl)-N-[(2RS)-3,3,3-trifluoro-2-hydroxypropyl]-6-[4-(trifluoromethyl)phenyl]-2,3-dihydropyridazine-4-carboxamide]",,> 20000
"O=C(NC(CO)C1CC1)c1cc(-c2ccc(C(F)(F)F)cc2)nn(-c2cccnc2)c1=O (racemic) [Example 109, N-[(1RS)-1-Cyclopropyl-2-hydroxyethyl]-3-oxo-2-(pyridin-3-yl)-6-[4-(trifluoromethyl)phenyl]-2,3-dihydropyridazine-4-carboxamide]",1.63,> 20000
"O=C(N[C@H]1CCCC(F)(F)[C@@H]1O)c1cc(-c2ccc(Cl)cc2)nn(-c2cccnc2)c1=O (racemic) [Example 143, 6-(4-Chlorophenyl)-N-[(trans)-3,3-difluoro-2-hydroxycyclohexyl]-3-oxo-2-(pyridin-3-yl)-2,3-dihydropyridazine-4-carboxamide]",9.61,> 20000
"O=C(N[C@H]1COC[C@@H]1O)c1cc(-c2ccc(OC(F)(F)F)cc2)nn(-c2cccnc2)c1=O (racemic) [Example 160, N-[(trans)-4-Hydroxytetrahydrofuran-3-yl]-3-oxo-2-(pyridin-3-yl)-6-[4-(trifluoromethoxy)phenyl]-2,3-dihydropyridazine-4-carboxamide]",79.2,> 20000
"O=C(N[C@H]1COC[C@H]1O)c1cc(-c2ccc(Cl)cc2)nn(-c2cccnc2)c1=O (racemic) [Example 171, rac-6-(4-chlorophenyl)-N-[(cis)-4-hydroxytetrahydrofuran-3-yl]-3-oxo-2-(pyridin-3-yl)-2,3-dihydropyridazine-4-carboxamide]",58.4,> 20000
"Cn1cc(-n2nc(-c3ccc(Cl)cc3)cc(C(=O)N[C@H]3CCC[C@@H]3O)c2=O)cn1 (relative stereo) [Example 51, 6-(4-Chlorophenyl)-N-[(trans)-2-hydroxycyclopentyl]-2-(1-methyl-1H-pyrazol-4-yl)-3-oxo-2,3-dihydropyridazine-4-carboxamide]",9.54,> 20000
"Cn1cc(-n2nc(-c3ccc(C(F)F)cc3)cc(C(=O)N[C@H]3CCC[C@@H]3O)c2=O)cn1 (relative stereo) [Example 52, 6-[4-(Difluoromethyl)phenyl]-N-[(trans)-2-hydroxycyclopentyl]-2-(1-methyl-1H-pyrazol-4-yl)-3-oxo-2,3-dihydropyridazine-4-carboxamide]",11.5,> 20000
"Cn1cc(-n2nc(-c3ccc(C(F)F)cc3)cc(C(=O)N[C@@H]3COC[C@@H]3O)c2=O)cn1 (relative stereo) [Example 60, 6-[4-(Difluoromethyl)phenyl]-N-[(cis)-4-hydroxytetrahydrofuran-3-yl]-2-(1-methyl-1H-pyrazol-4-yl)-3-oxo-2,3-dihydropyridazine-4-carboxamide]",21.8,> 20000
"O=C(N[C@@H]1CCCC[C@@H]1O)c1cc(-c2ccc(Cl)cc2)nn(-c2cccnc2)c1=O (relative stereo) [Example 133, 6-(4-Chlorophenyl)-N-[(cis)-2-hydroxycyclohexyl]-3-oxo-2-(pyridin-3-yl)-2,3-dihydropyridazine-4-carboxamide]",7.52,> 20000
"O=C(N[C@H]1COC[C@@H]1O)c1cc(-c2ccc(Cl)cc2)nn(-c2cccnc2)c1=O (relative stereo) [Example 168, 6-(4-Chlorophenyl)-N-[(trans)-4-hydroxytetrahydrofuran-3-yl]-3-oxo-2-(pyridin-3-yl)-2,3-dihydropyridazine-4-carboxamide]",240,
"O=C(N[C@@H]1COC[C@@H]1O)c1cc(-c2ccc(C(F)(F)F)cc2)nn(-c2cccnc2)c1=O (single isomer, unassigned) [Example 252, (−)-N-cis-4-Hydroxytetra-hydrofuran-3-yl-3-oxo-2-(pyridin-3-yl)-6-[4-(trifluoromethyl)phenyl]-2,3-dihydropyridazine-4-carboxamide]",18,
"CC(NC(=O)c1cc(-c2ccc(Cl)cc2)nn(-c2cccnc2)c1=O)C(O)C(F)(F)F (single isomer, unassigned) [Example 300, 6-(4-Chlorophenyl)-3-oxo-2-(pyridin-3-yl)-N-(4,4,4-trifluoro-3-hydroxybutan-2-yl)-2,3-dihydropyridazine-4-carboxamide]",,> 20000
"O=C(N[C@H]1CCCC[C@H]1O)c1cc(-c2ccc(C(F)(F)F)cc2)nn(-c2cccnc2)c1=O [Example 106, N-[(1S,2R)-2-Hydroxycyclohexyl]-3-oxo-2-(pyridin-3-yl)-6-[4-(trifluoromethyl)phenyl]-2,3-dihydropyridazine-4-carboxamide]",,> 20000
"O=C(NC[C@H](O)C(F)(F)F)c1cc(-c2ccc(C(F)(F)F)cc2)nn(-c2cccnc2)c1=O [Example 117, 3-Oxo-2-(pyridin-3-yl)-N-[(2S)-3,3,3-trifluoro-2-hydroxypropyl]-6-[4-(trifluoromethyl)phenyl]-2,3-dihydropyridazine-4-carboxamide]",,> 20000
"C[C@@H](CO)NC(=O)c1cc(-c2ccc(C(F)(F)F)nc2)nn(-c2cccnc2)c1=O [Example 166, N-[(2S)-1-Hydroxypropan-2-yl]-3-oxo-2-(pyridin-3-yl)-6-[6-(trifluoromethyl)pyridin-3-yl]-2,3-dihydropyridazine-4-carboxamide]",180,
